Test results: the C3SDB collision cross section collection
Where “and” joins values, the source holds several entries; their conditions need not be identical. Identical values can stand only once.

Assays:
[1] = instrument: DT, single field, calibrated with Agilent tune mix (Agilent)
[2] = instrument: DT, stepped-field
[3] = instrument: TW, calibrated with phosphatidylcholines (ESI+) and phosphatidylethanolamines (ESI-)
[4] = [M+K]+; instrument: DT; stepped-field

| SMILES | collision cross section (N2) ([1]; [M+H]+) [Å²] | collision cross section (N2) ([1]; [M-H]-) [Å²] | collision cross section (N2) ([2]; [M-H]-) | also measured |
| --- | --- | --- | --- | --- |
| CCCCCCCCCC/C=C\CCCCCCCCCC(=O)O[C@H](COC(=O)CCCCCCCCCCCCC)COP(=O)(O)OC[C@H](N)C(=O)O [PS(36:1)] | 286.2 | 279.1 | 289.4 Å² | collision cross section (N2) ([1]; [M+Na]+): 287.5 Å²; collision cross section (N2) ([3]; [M-H]-): 278.8 Å² |
| CCCCCCCC/C=C\CCCCCCCC(=O)OC[C@@H](O)COP(=O)(O)O [LPA(18:1)] |  |  | 198.8 Å² |  |
| CCCCCCCC/C=C\C/C=C\C/C=C\CCCC(=O)OC[C@H](COP(=O)([O-])OCC[N+](C)(C)C)OC(=O)CCCCCCCCCCCCC [PC(34:3)] | 281.8 |  |  | collision cross section (N2) ([1]; [M+HCOO]-): 283.5 Å²; collision cross section (N2) [4]: 292.4 Å²; collision cross section (N2) ([2]; [M+H]+): 292.3 Å²; collision cross section (N2) ([3]; [M+H]+): 278.8 Å² |
| CCCCC/C=C\C/C=C\C/C=C\CCCCCCC(=O)O[C@H](COCCCCCCCCCCCCCCCCCC)COP(=O)(O)OCCN [PE(o38:3)] |  |  |  | collision cross section (N2) ([2]; [M+H]+): 297.6 Å² |
| CCCCCCCCCC/C=C\CCCCCCCCCC(=O)O[C@H](COC(=O)CCCCCCCCCCCCCCC)COP(=O)(O)OC[C@H](N)C(=O)O [PS(38:1)] | 292.9 |  | 296.1 Å² |  |
| CCCCCCCCCC/C=C\CCCCCCCCCC(=O)O[C@H](COC(=O)CCCCCCCCCCCCC)COP(=O)(O)O [PA(18:0/18:1)] |  |  | 268 Å² |  |
| CCCCC/C=C\C/C=C\CCCCCCCCCCCC(=O)O[C@H](COC(=O)CCCCCCCCCCCCC)COP(=O)(O)O [PA(18:1/18:1)] |  |  | 264 Å² |  |
| CCCCCC/C=C\CCCCCCCC(=O)OC[C@@H](O)COP(=O)(O)OCCN [LPE(16:1)] |  | 203.8 | 201.1 Å² |  |
| CCCCCCCCCCCCCCCC(=O)OC[C@@H](O)COP(=O)(O)OC[C@@H](O)CO [LPG(16:0)] |  |  | 214.3 Å² |  |
| CCCCC/C=C\C/C=C\CCCCCCCCCCCC(=O)O[C@H](COC(=O)CCCCCCC/C=C\CCCCCC)COP(=O)(O)O[C@H]1C(O)C(O)C(O)[C@@H](O)C1O (some centres undefined) [PI(38:3)] | 304.2 | 293.7 | 301.7 Å² and 303.9 Å² | collision cross section (N2) ([1]; [M+NH4]+): 306 Å²; collision cross section (N2) ([1]; [M+Na]+): 303.1 Å²; collision cross section (N2) ([3]; [M+Na]+): 298.5 Å²; collision cross section (N2) ([3]; [M-H]-): 293 Å² |
| CCCCCCC/C=C\CCCCCCCC(=O)O[C@H](COC(=O)CCCCCCCCCCCC)COP(=O)(O)O[C@H]1C(O)C(O)C(O)[C@@H](O)C1O (some centres undefined) [PI(14:0/16:1)] |  |  | 278.4 Å² |  |
| CCCCCC/C=C\CCCCCCCCCC(=O)O[C@H](CO)COP(=O)(O)OCCN [LPE(18:1)] | 215.8 | 211.3 | 210.1 Å² | collision cross section (N2) ([1]; [M+Na]+): 222.1 Å²; collision cross section (N2) ([3]; [M+H]+): 214.2 Å²; collision cross section (N2) ([3]; [M+Na]+): 219 Å²; collision cross section (N2) ([3]; [M-H]-): 210.2 Å² |
| CCCCCCCCCCCCCCCC(=O)OC[C@@H](O)COP(=O)(O)O[C@H]1C(O)C(O)C(O)[C@@H](O)C1O (some centres undefined) [LPI(16:0)] |  | 229.1 | 228.7 Å² |  |
| CCCCC/C=C\C/C=C\CCCCCCCCCCCC(=O)O[C@H](COC(=O)CCCCCCCCCCC)COP(=O)(O)OC[C@H](N)C(=O)O [PS(16:1/18:1)] |  |  | 276.9 Å² |  |
| CCCCC/C=C\C/C=C\CCCCCCCCCCCC(=O)O[C@H](COC(=O)CCCCCCCCCCC)COP(=O)(O)O[C@H]1C(O)C(O)C(O)[C@@H](O)C1O (some centres undefined) [PI(16:1/18:1)] |  |  | 289.2 Å² |  |
| CCCCC/C=C\C/C=C\CCCCCCCCCCCC(=O)O[C@H](COC(=O)CCCCCCC/C=C\C/C=C\CCCCC)COP(=O)(O)OCCN [PE(40:4)] | 288.1 | 278.5 | 287.9 Å² and 287.8 Å² | collision cross section (N2) ([1]; [M+Na]+): 293.3 Å²; collision cross section (N2) ([3]; [M+H]+): 286.8 Å²; collision cross section (N2) ([3]; [M-H]-): 277.3 Å² |
